Data on 34 molecules can be found in patent US6172262A, “Amphiphilic agents for membrane protein solubilization” (priority 1999, dated 2001).

Values after ≈ are worked out from the molar mass of the structure shown. Values joined by “and” are separate entries in the source; they are usually repeats but may differ in a detail not shown here. Equal values may be shown once. “Also recorded” adds a separate entry of the source.

For one series, the target named is T1, Bacteriorhodopsin (BR) (Halobacterium salinarum, UniProt P02945).
T1 construct: We used BR solubilization from the PM to evaluate tripod detergents; endogenous in cells
T1 sequence (P02945 14-261 limits assumed): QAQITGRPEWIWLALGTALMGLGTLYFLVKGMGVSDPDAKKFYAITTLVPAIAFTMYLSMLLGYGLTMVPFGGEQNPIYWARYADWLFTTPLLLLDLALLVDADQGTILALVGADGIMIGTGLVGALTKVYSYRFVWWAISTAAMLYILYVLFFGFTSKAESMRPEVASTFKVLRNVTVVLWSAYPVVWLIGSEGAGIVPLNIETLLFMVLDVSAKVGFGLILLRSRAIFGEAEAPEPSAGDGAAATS
In words: Solubilization of bacteriorhodopsin (BR) from purple membrane (PM). As to the method: We used BR solubilization from the PM to evaluate tripod detergents synthesized using the modular synthetic approach described above. The retinal chromophore of BR allowed us to quantify solubilized material by UV. Solubilized BR is defined as the intact protein left in the supernatant after a sample is centrifuged for 30 minutes at 300,000 g. The percent BR solubilized is determined by dividing the absorbance of the supernatant by the absorbance of the solution before centrifugation.
Solubilization experiments were conducted by making a series of solutions with constant concentration of PM and varying the concentration of detergent. […] The absorbance at the λmax (between 540 nm and 570 nm) was then measured, and immediately afterward the samples were centrifuged for 30 minutes at 300,000 g. The supernatant was carefully removed so as not to disturb pelleted material. Absorbance measurements were made again, and the ratio of the supernatant absorbance to the absorbance before centrifugation provided the percent solubilization.

A short description of another series: Aqueous solubility. It counts as physicochemical. As to conditions: for solubility on adding small amounts of ethanol or ethyl acetate: aqueous suspensions plus ethanol or ethyl acetate.
Series [1] in a line: CMC by uptake of fluorescent dye 1,6-diphenylhexatriene, fluorescence spectroscopy. It counts as physicochemical. Particulars: for CMC (Critical Micelle Concentration): uptake of 1,6-diphenylhexatriene, 25 mM sodium phosphate pH 6.9, Table 1 and text; for CMC: Table 2, dye uptake versus concentration monitored by fluorescence spectroscopy. As to the method: The CMCs of detergents 4.65-4.72 were determined by monitoring the uptake of a fluorescent dye (1,6-diphenylhexatriene) with increasing detergent concentration (Table 1, CMC's determined by dye uptake versus concentration monitored by fluorescence spectroscopy). The CMCs of N-oxide isomers 4.65, 4.67, and 4.68 are very similar: 3 mM, 3 mM, and […], respectively. […] The CMCs for the N-oxides 4.65 and 4.66 are twice the CMCs of the corresponding hydrochloride salts (4.78 and 4.79). The hydrochloride salts were formed from the amine precursors to the N-oxides. Most cationic detergents have CMCs that are much higher than non-ionic or zwitterionic analogs. For example, dodecylammonium bromide has a CMC of 15 mM which is >7 times larger than the CMC of the N-oxide analog (LDAO, CMC=2 mM).
The CMCs of 4.100 and 4.104 were determined by the uptake of the fluorescent dye 1,6-diphenylhexatriene. The CMCs are 0.125 mM and 0.700 mM respectively. These values are substantially lower than the CMC of 4.65, which was determined to be 3 mM.
The CMC of a detergent can be determined experimentally by measuring the solubilization of a water-insoluble dye or fluorophore while varying the concentration of detergent. CMC may also be determined by measuring the diminution of the surface tension of an aqueous solution as a function of detergent concentration. (CMC's determined by either method correlate with each other.) The CMC is determined by extrapolating the plot of solubilization vs. concentration (or surface tension vs. concentration) in the two linear regions above and below the CMC. Where the two lines intersect is the CMC. In this Example, CMC's were determined by the method of Nugebauer, J. M. (1990), Methods in Enzymology, 182:239-253:
Tripod solutions in aqueous solutions containing 25 mM sodium phosphate pH 6.9 were prepared and transferred to screw-capped vials, and […] of a 1,6-diphenylhexatriene solution (DPH, 3.125 mM DPH in THF) was added. The solutions were vortexed at room temperature for 30 seconds. The solutions were placed into a 3 mm×3mm quartz cell and the fluorescence spectrum was obtained (excitation 358 nm, emission 430 nm, excitation slit width=1 mm, emission slit width=20 nm, PMT voltage=700). The fluorescence intensity of each sample was plotted against amphiphile concentration. […] The data points immediately surrounding the CMC were not considered due to non-linear behavior. See Tables 1 and 2, above, for the results.

The subject of a further series is BR. In words: Loss of exciton coupling of BR by CD spectra (rate of solubilization). Particulars: room temperature. Also noted: species or system Halobacterium. As to the method:
Tripod detergents 4.65 and 4.66 were tested in this fashion and shown to solubilize BR from the PM quite rapidly. To measure whether the solublized BR was present in a monomeric state, CD spectra of the supernatants were taken. When suspended within the native PM, BR yields a distinct sigmoidal CD spectrum due to exciton coupling between adjacent retinal chromophores. It has been shown that the strength of the exciton coupling is directly proportional to the concentration of retinal chromophore in the PM. Because the exciton coupling requires retinals to be held in a fixed geometry (as when suspended in the PM), the solubilization of BR can be measured in terms of the loss of exciton coupling. […] Exciton coupling was completely gone after less than 10 minutes for samples solubilized by 4.65 and 4.66, a time period which is faster than the time required to obtain a CD spectrum.

Regarding `CCCCC(CCCC)(CCOC1O[C@H](CO)[C@@H](O[C@H]2O[C@H](CO)[C@@H](O)[C@H](O)[C@H]2O)[C@H](O)[C@H]1O)c1ccccc1` (some centres unmarked) [A.2.5], the “BR solubilized from the purple membrane” value on Bacteriorhodopsin (BR) is “approximately 50%”. The “solubility in water (in words)” value in “Aqueous solubility” (water) is on record as “sparingly soluble in water”.
As for `CCCCC(CCCC)(CC(=O)N(CC[N+](C)(C)[O-])CC[N+](C)(C)[O-])c1ccccc1` [Detergent 4.37], the BR solubilization result is “greater than 90%” on Bacteriorhodopsin (BR) (after mixing for approximately 20 hrs); over 90% at Bacteriorhodopsin (BR) (first batch (about twice as much impurity 4.63)); < 50% and 50% on Bacteriorhodopsin (BR) (second batch).
Take `CCCCCCC(CCCC)(CCCC)CC(=O)N(CC[N+](C)(C)[O-])CC[N+](C)(C)[O-]` [Detergent 4.39]: on Bacteriorhodopsin (BR) (after 11 days), the BR solubilization result is given as “approximately 30%”.
On to `CCCCCCC(CC(=O)N(CC[N+](C)(C)[O-])CC[N+](C)(C)[O-])(c1ccccc1)c1ccccc1` [Detergent 4.55], for which, on Bacteriorhodopsin (BR), the “BR solubilization (in words)” value is recorded as “readily solubilize BR”.
The same measure, in the same setting: for `CCCCC(CC(=O)N(CC[N+](C)(C)[O-])CC[N+](C)(C)[O-])(C1CCCCC1)C1CCCCC1` [Detergent 4.56] the value was “readily solubilize BR”.
As to `CC(C)(C)c1ccc(C(CC(=O)N(CC[N+](C)(C)[O-])CC[N+](C)(C)[O-])(c2ccc(C(C)(C)C)cc2)c2ccc(C(C)(C)C)cc2)cc1` [Detergent 4.59], the “solubility on adding small amounts of ethanol or ethyl acetate” value in the series “Aqueous solubility” was “greatly increased”. Besides, the “solubility in water (in words)” value in the series “Aqueous solubility” (water) was “insoluble in water”.
On the same counts, the results for `C[N+](C)([O-])CCN(CC[N+](C)(C)[O-])C(=O)CC(c1ccc(-c2ccccc2)cc1)(c1ccc(-c2ccccc2)cc1)c1ccc(-c2ccccc2)cc1` [Detergent 4.62] are “greatly increased” and “insoluble in water”.
As for `CCCCC(CCCC)(CC(=O)N(CC)CC[N+](C)(C)[O-])c1ccccc1` [Detergent 4.65], the “CMC of N-oxide relative to corresponding hydrochloride salt” value in series [1] (4.65 vs 4.78, 4.66 vs 4.79) is listed as “twice”. Besides, the “CMC (Critical Micelle Concentration)” value in series [1] is reported as 3 mM. On Bacteriorhodopsin (BR), the “BR solubilization (in words)” value is “can solubilize BR”. Also, the BR solubilization entry on Bacteriorhodopsin (BR) (>99% pure by HPLC) is “greater than 90%”. Besides, in the series with BR, the “rate of BR solubilization (in words)” value was “quite rapidly; also recorded: too rapid to monitor the loss of exciton coupling” and the “time to complete loss of exciton coupling” value is given as “less than 10 minutes”.
In the case of `CCCCC(CCCC)(CC(=O)N(C)CCC[N+](C)(C)[O-])c1ccccc1` [Detergent 4.67], the “CMC (Critical Micelle Concentration)” value in series [1] turned out to be 3 mM.
Same read-out and setting: for `CCCCC(CCCC)(CC(=O)NC(C)(C)C[N+](C)(C)[O-])c1ccccc1` [Detergent 4.68] the value was 1.2 mM; for `CCCCC(CCCC)(CC[N+](C)(C)[O-])c1ccccc1` [Detergent 4.69], 2.5 mM.
Take `CCCCC(CCCC)(CC(=O)NCC(C)(C)C[N+](C)(C)[O-])c1ccccc1` [Detergent 4.70]: in series [1], the “CMC of 4.70 relative to that of 4.68” value is listed as “six times larger” and the “CMC (Critical Micelle Concentration)” value was determined as 7.5 mM.
In the case of `CCCCC(CCCC)(CC(=O)N(CCC[N+](C)(C)[O-])CCC[N+](C)(C)[O-])c1ccccc1` [Detergent 4.71], the “CMC (Critical Micelle Concentration)” value in series [1] was 10 mM.
On to `CCCCC(CCCC)(CC(=O)N(CC)CCN(C)C)c1ccccc1` [Detergent 4.78], for which, in series [1], the “CMC (Critical Micelle Concentration)” value stood at 1.3 mM.
Same read-out and setting: for `CCCCC(CCCC)(CC(=O)NCCCN(C)C)c1ccccc1` [Detergent 4.79] the value was 2.8 mM; for `CCCCC(CCCC)(CC(=O)N(C)CCCN(C)C)c1ccccc1` [Detergent 4.80], 5 mM.
By solubility is commonly meant the concentration that dissolves in the medium under given conditions. For `CCCCC(CCCC)(CC(=O)NC(C)(C)CN(C)C)c1ccccc1` [Detergent 4.81], the “CMC (Critical Micelle Concentration)” value in series [1] is given as “Does not take up dye up to solubility limit”. In addition, in “Aqueous solubility” (water, Table 1, no dye uptake up to this limit, read-out: solubility limit), the solubility was about 12.5 mM (≈ 4510 µg/mL).
Consider `CCCCC(CCCC)(CCN(C)C)c1ccccc1` [Detergent 4.82], for which the “CMC (Critical Micelle Concentration)” value in series [1] was 5 mM.
Still for that read-out and setting: for `CCCCC(CCCC)(CC(=O)NCC(C)(C)CN(C)C)c1ccccc1` [Detergent 4.83] the value was 14.7 mM.
For the molecule `CCCCC(CCCC)(CC(=O)N(CCCN(C)C)CCCN(C)C)c1ccccc1` [Detergent 4.84], in series [1], the CMC was found to be 24 mM and the “CMC (Critical Micelle Concentration)” value amounted to 24 mM.
In the case of `CN(C)CCCN(CCCN(C)C)C(=O)CC1(c2ccccc2)CCCCCCC1` [Detergent 4.85], the CMC in series [1] is reported as 80 mM.
Same read-out and setting: for `CCCCC(CC(=O)N(CCCN(C)C)CCCN(C)C)(c1ccccc1)c1ccccc1` [Detergent 4.86] the value was 21 mM; for `CCCCCCC(CC(=O)N(CCCN(C)C)CCCN(C)C)(c1ccccc1)c1ccccc1` [Detergent 4.87], 4 mM.
The same measure, in the same setting: for `CN(C)CCCN(CCCN(C)C)C(=O)CC(c1ccccc1)(c1ccccc1)c1ccccc1` [Detergent 4.88] the value was 30 mM; for `CN(C)CCCN(CCCN(C)C)C(=O)CC(c1ccccc1)(c1ccccc1)c1ccc(C(C)(C)C)cc1` [Detergent 4.89], 3 mM.
The same measure, in the same setting: for `CN(C)CCCN(CCCN(C)C)C(=O)CC(c1ccc(-c2ccccc2)cc1)(c1ccc(-c2ccccc2)cc1)c1ccc(-c2ccccc2)cc1` [Detergent 4.90] the value was “insol”.
With `CN(C)CCCN(CCCN(C)C)C(=O)CC(c1ccc(C(C)(C)C)cc1)(c1ccc(C(C)(C)C)cc1)c1ccc(C(C)(C)C)cc1` [Detergent 4.91], the CMC entry in series [1] is given as “insol”.
Still for that read-out and setting: for `CCCCCCC(CCCC)(CCCC)CC(=O)N(CCCN(C)C)CCCN(C)C` [Detergent 4.92] the value was 1 mM; for `CCCCC(CCCC)(CCCC)CC(=O)N(CCCN(C)C)CCCN(C)C` [Detergent 4.93], 6 mM; for `CCCCC(CC(=O)N(CCCN(C)C)CCCN(C)C)(C1CCCCC1)C1CCCCC1` [Detergent 4.94], 3 mM.
As to `CN(C)CCCN(CCCN(C)C)C(=O)CC1(C2CCCCC2)CCCCCCC1` [Detergent 4.95], the CMC in series [1] is given as 24 mM.
For the molecule `CCCCC(CCCC)(CC(=O)N(CCCN(C)C)CCCN(C)C)C1CCCCC1` [Detergent 4.96], in series [1], the CMC is 4.6 mM.
In the case of `CCCCCCCCCCc1ccc(C(=O)N(CC)CC[N+](C)(C)[O-])cc1` [Detergent 4.100], the “CMC (Critical Micelle Concentration)” value in series [1] worked out at 0.125 mM.
Still for that read-out and setting: for `CCCCC(C)(CCCC)c1ccc(C(=O)N(CC)CC[N+](C)(C)[O-])cc1` [Detergent 4.104] the value was 0.700 mM.
